Source: patent US8178530B2, “Imidazolopyrazine compounds useful for the treatment of degenerative and inflammatory diseases” (Janssen Pharmaceutica NV, priority 2006, dated 2012)

What was measured:
[1] = molecular target: T1, MAPKAPK5 (Homo sapiens, UniProt Q8IW41); assay: MAPKAP-K5 assay (FlashPlate, 33P-ATP); format: biochemical; conditions: 0.6 μM ATP, 30 minutes at room temperature
T1 construct: 1 mU MAPKAP-K5
T1 sequence (Q8IW41 1-473): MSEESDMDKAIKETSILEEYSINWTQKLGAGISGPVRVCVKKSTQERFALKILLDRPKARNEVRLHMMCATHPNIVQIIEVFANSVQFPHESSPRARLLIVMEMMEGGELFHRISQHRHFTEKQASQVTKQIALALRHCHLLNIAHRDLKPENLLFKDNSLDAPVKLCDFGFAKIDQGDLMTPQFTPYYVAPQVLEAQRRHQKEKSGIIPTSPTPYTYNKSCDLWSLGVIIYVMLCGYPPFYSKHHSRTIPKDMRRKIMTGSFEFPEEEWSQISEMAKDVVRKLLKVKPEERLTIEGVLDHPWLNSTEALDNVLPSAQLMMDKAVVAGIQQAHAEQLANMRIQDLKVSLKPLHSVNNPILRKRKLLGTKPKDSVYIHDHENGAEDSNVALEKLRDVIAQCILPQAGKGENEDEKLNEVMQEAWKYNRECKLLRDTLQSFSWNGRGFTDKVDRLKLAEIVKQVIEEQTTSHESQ
Description: 3 μM MAPKAP-K5 peptide substrate

[2] = system: MMP1 expression by SFs; assay: 'MMP assay': MMP1 expression by 'complex trigger' activated synovial fibroblasts (MMP1 ELISA); format: cell-based, human; conditions: Homo sapiens, Fibroblast, RASFs, 48 hrs
Description: A 384-well format ELISA for measurement of MMP1 is developed. Various primary antibodies are tested, as well as various ELISA protocols. The following protocol is developed and validated to measure MMP1 levels in SF supernatant in 384 well plates: white Lumitrac 600 384 well plates (Greiner) are coated with 2 μg/mL anti-MMP1 antibody MAB1346 (Chemicon). The antibody is diluted in buffer 40 (1.21 g Tris base (Sigma), 0.58 g NaCl (Calbiochem) and 5 ml 10% NaN3 (Sigma) in 1 L milliQ water and adjusted to pH 8.5). After overnight incubation at 4° C., plates are washed with PBS (80 g NaCl, 2 g KCl (Sigma), 11.5 g Na2HPO4.7H2O and 2 g KH2PO4 in 10 L milliQ; pH 7.4) and blocked with 100 μL/well Casein buffer (2% Casein (VWR International) in PBS). Next day, casein buffer is removed from ELISA plates and replaced by 50 μL/well EC buffer (4 g casein, 2.13 g Na2HPO4 (Sigma), 2 g bovine albumin (Sigma), 0.69 g NaH2PO4.H2O (Sigma), 0.5 g CHAPS (Roche), 23.3 g NaCl, 4 mL 0.5 M EDTA pH 8 (Invitrogen), 5 mL 10% NaN3 in 1 L milliQ and adjusted to pH 7.0). 0.25 mM DTT (Sigma) is added to the thawed samples plates. After removal of the EC buffer, 20 μL of sample is transferred to the ELISA plates. After overnight incubation at 4° C. plates are washed twice with PBS and once with PBST (PBS with 0.05% Tween-20 (Sigma)) and incubated with 35 μL/well biotinylated anti-MMP1 antibody solution (R&D). This secondary antibody is diluted in buffer C (0.82 g NaH2PO4.H2O, 4.82 g Na2HPO4, 46.6 g NaCl, 20 g bovine albumin and 4 mL 0.5M EDTA pH 8 in 2 L milliQ and adjusted to pH 7.0) at a concentration of 5 μg/mL. After 2 h of incubation at RT, plates are washed as described above and incubated with 50 μL/well streptavidin-HRP conjugate (Biosource). Streptavidin-HRP conjugate is diluted in buffer C at a concentration of 0.25 μg/mL. After 45 min, plates are washed as described above and incubated for 5 min with 50 μL/well BM Chem ELISA Substrate (Roche). Readout is performed on the Luminoscan Ascent Luminometer (Labsystems) with an integration time of 200 msec or with an Envision reader (Perkin Elmer).
The increase of MMP1 expression by SFs upon treatment with cytokines relevant in the field of RA (TNF-α, IL1β and OSM) or a combination thereof is shown in FIG. 2 as white bars. For this experiment, SFs are seeded in 96 well plates, 3,000 cells/well. 24 h later, the medium is changed to M199 medium supplemented with 1% FBS. One day after the medium change, cytokines or combinations thereof are added to the cultures, each cytokine being added to a final concentration of 25 ng/mL. 72 h after cytokine addition, the supernatant is collected and processed in the MMP1 ELISA as described in the protocol given above. In parallel with this experiment, SFs are triggered, using the same protocol, with the supernatant of THP1 cells (2-fold diluted in M199+1% FBS) treated with the same cytokines or combinations of cytokines for 48 h in M199 medium+1% FBS. The induction of the MMP1 expression by SFs triggered with the supernatants of TNF-α-treated THP1 cells is stronger (>4.5 fold induction) as compared to the SFs triggered with recombinant TNF-α alone (3-fold induction) and almost equals the 5-fold induction obtained by a mixture of 3 purified cytokines (TNF-α, IL1βb, OSM). […] As the role of TNF-α in the RA pathogenesis is validated (TNF-α-blockers such as Infliximab and Etanercept show some efficacy in the treatment of RA patients) and the THP-1 cells are representative for monocytes/macrophages present in the joint of RA patients, the TNF-α-based trigger mixture prepared by contacting THP-1 cells with TNF-α will contain factors present in the joints of RA patients and subsequently is relevant to RA. This TNF-α-based complex trigger, further referred to as the ‘complex trigger’, will further be used as basis for the ‘MMP assay’.
Dexamethasone is shown to dose-dependently reduce amounts of MMP1 produced by complex trigger activated SFs. […]

| Structure (SMILES) | IC50 [1] | EC50 [2] |
| --- | --- | --- |
| NC(=O)c1ccc(-c2cnc(Nc3ccc(C(=O)NCc4cccnc4)cc3)c3nccn23)cc1 [Compound 104] | > 1000 nM | > 1000 nM |
| CCN(CC)CCNC(=O)c1ccc(Nc2ncc(-c3nc[nH]n3)n3ccnc23)cc1 [Compound 105] | > 1000 nM | > 1000 nM |
| CCN(CC)CCNC(=O)c1ccc(Nc2ncc(-c3n[nH]c(C)n3)n3ccnc23)cc1 [Compound 106] | > 1000 nM | > 1000 nM |
| CCOc1cc(-c2cnc(Nc3ccc(N4CCOCC4)cc3)c3nccn23)ccn1 [Compound 107] | > 1000 nM | > 1000 nM |
| O=C(NCc1cccnc1)c1ccc(Nc2ncc(-c3cc[nH]c(=O)c3)n3ccnc23)cc1 [Compound 108, 4-[5-(2-Oxo-1,2-dihydropyridin-4-yl)imidazo[1,2-a]pyrazin-8-ylamino]-N-pyridin-3-ylmethyl benzamide] | 501 to 1000 nM | 101 to 500 nM |
| CN1CCN(c2ccc(Nc3ncc(-c4ccc(=O)[nH]c4)n4ccnc34)cc2)CC1 [Compound 109] | > 1000 nM | > 1000 nM |
| CN(C)c1cc(-c2cnc(Nc3ccc(N4CCOCC4)cc3)c3nccn23)ccn1 [Compound 111, [5-(2-Dimethylamino-pyridin-4-yl)-imidazo[1,2-a]pyrazin-8-yl]-(4-morpholin-4-yl-phenyl)-amine] | > 1000 nM | > 1000 nM |
| O=C(NCc1ccc(O)cc1)c1ccc(Nc2ncc(-c3cc[nH]c(=O)c3)n3ccnc23)cc1 [Compound 112] | 101 to 500 nM | 101 to 500 nM |
| CN1CCN(c2ccc(Nc3ncc(-c4ccc(C(=O)N5CCCC5)cc4)n4ccnc34)cc2)CC1 [Compound 115] | > 1000 nM | > 1000 nM |
| CN1CCN(c2ccc(Nc3ncc(-c4ccc(C(=O)NC5CC5)cc4)n4ccnc34)cc2)CC1 [Compound 117] | > 1000 nM | > 1000 nM |
| CN1CCN(c2ccc(Nc3ncc(-c4cncc(C(N)=O)c4)n4ccnc34)cc2)CC1 [Compound 121, 5-{8-[4-(4-Methyl-piperazin-1-yl)-phenylamino]-imidazo[1,2-a]pyrazin-5-yl}-nicotinamide] | > 1000 nM | > 1000 nM |
| CN1CCN(c2ccc(Nc3ncc(-c4ccc(C(N)=O)c(N(C)C)c4)n4ccnc34)cc2)CC1 [Compound 126, 2-Dimethylamino-4-{8-[4-(4-methyl-piperazin-1-yl)-phenylamino]-imidazo[1,2-a]pyrazin-5-yl}-benzamide] | > 1000 nM | > 1000 nM |
| Cc1cnc2c(Nc3ccc(N4CCOCC4)cc3)ncc(-c3ccc(C(N)=O)cc3)n12 [Compound 130, 4-[3-Methyl-8-(4-morpholin-4-ylphenylamino)imidazo[1,2-a]pyrazin-5-yl]benzamide] | > 1000 nM | > 1000 nM |
| Cc1cnc2c(Nc3ccc(N4CCOCC4)cc3)ncc(-c3cn[nH]c3)n12 [Compound 131, [3-Methyl-5-(1H-pyrazol-4-yl)imidazo[1,2-a]pyrazin-8-yl]-(4-morpholin-4-yl-phenyl)amine] | > 1000 nM | > 1000 nM |
| CN1CCN(c2ccc(Nc3ncc(-c4ccnc(N)c4)n4ccnc34)cc2)CC1 [Compound 132, [5-(2-Amino-pyridin-4-yl)-imidazo[1,2-a]pyrazin-8-yl]-[4-(4-methyl-piperazin-1-yl)-phenyl]-amine] | > 1000 nM | > 1000 nM |
| NC(=O)c1ccc(-c2cnc(Nc3ccc(-n4ccc(C(F)(F)F)n4)cc3)c3nccn23)cc1 [Compound 133] | > 1000 nM | 101 to 500 nM |
| NC(=O)c1ccc(-c2cnc(Nc3ccc(-n4cncn4)cc3)c3nccn23)cc1 [Compound 134] | > 1000 nM | 101 to 500 nM |
| Cc1cnc2c(Nc3ccc(N4CCOCC4)cc3)ncc(-c3cc[nH]c(=O)c3)n12 [Compound 135] | > 1000 nM | > 1000 nM |
| NC(=O)c1ccc(-c2cnc(Nc3ccc(OCc4cccnc4)cc3)c3nccn23)cc1F [Compound 147] | > 1000 nM | 101 to 500 nM |
| CC(C)Oc1ccc(Nc2ncc(-c3ccc(C(N)=O)c(F)c3)n3ccnc23)cc1 [Compound 148] | > 1000 nM | 501 to 1000 nM |
| NC(=O)c1ccc(-c2cnc(Nc3ccc(-n4cc(-c5ccccn5)nn4)cc3)c3nccn23)cc1 [Compound 154, 4-{8-[4-(4-Pyridin-2-yl-[1,2,3]triazol-1-yl)-phenylamino]-imidazo[1,2-a]pyrazin-5-yl}-benzamide] | > 1000 nM | 1 to 100 nM |
| CN1CCN(c2ccc(Nc3ncc(-c4cn[nH]c4C(F)(F)F)n4ccnc34)cc2)CC1 [Compound 157, [4-(4-Methyl-piperazin-1-yl)-phenyl]-[5-(3-trifluoromethyl-1H-pyrazol-4-yl)-imidazo[1,2-a]pyrazin-8-yl]-amine] | > 1000 nM | > 1000 nM |
| O=c1cc(-c2cnc(Nc3ccc(N4CCOCC4)cc3)c3nccn23)cc(C(F)(F)F)[nH]1 [Compound 161, 6-Trifluoromethyl-4-[8-(4-morpholin-4-ylphenylamino)imidazo[1,2-a]pyrazin-5-yl]-1H-pyridin-2-one] | > 1000 nM | > 1000 nM |
| CCc1cnc2c(Nc3ccc(N4CCOCC4)cc3)ncc(-c3ccc(C(N)=O)cc3)n12 [Compound 162, 4-[3-Ethyl-8-(4-morpholin-4-ylphenylamino)-imidazo[1,2-a]pyrazin-5-yl]benzamide] | > 1000 nM | 501 to 1000 nM |
| NC(=O)c1nc(-c2cnc(Nc3ccc(N4CCOCC4)cc3)c3nccn23)cs1 [Compound 164] | > 1000 nM | > 1000 nM |
| Cn1nnc(-c2ccc(Nc3ncc(-c4ccc(C(N)=O)cc4)n4ccnc34)cc2)n1 [Compound 170] | > 1000 nM | 101 to 500 nM |
| NC(=O)c1ccc(-c2cnc(Nc3cccc(N4CCOCC4)c3)c3nccn23)cc1 [Compound 172] | > 1000 nM | > 1000 nM |
| Cc1cc(-c2cnc(Nc3ccc(N4CCOCC4)cc3)c3nccn23)cc(=O)[nH]1 [Compound 174, 6-Methyl-4-[8-(4-morpholin-4-ylphenylamino)-imidazo[1,2-a]pyrazin-5-yl]-1H-pyridin-2-one] | > 1000 nM | 101 to 500 nM |
| NC(=O)c1cc(Nc2ncc(-c3cc(F)c(C(N)=O)c(F)c3)n3ccnc23)ccc1N1CCOCC1 [Compound 175, 4-[8-(3-Carbamoyl-4-morpholin-4-yl-phenylamino)-imidazo[1,2-a]pyrazin-5-yl]-2,6-difluoro-benzamide] | 101 to 500 nM | 501 to 1000 nM |
